Experimental data taken from ChEMBL document CHEMBL5385928, “Sokotrasterol Sulfate Suppresses IFN-γ-Induced PD-L1 Expression by Inhibiting JAK Activity” (J Nat Prod, 2024).
Calls of active or inactive are those of the source. The rule behind the calls is not given here.

Columns and labels:
[1] = Inhibition of IFN-gamma induced PD-L1 protein expression in human BXPC-3 cells incubated for 48 hrs by high-throughput flow cytometric analysis; settings: BXPC-3, 48 h
[2] = Inhibition of IFN-gamma induced PD-L1 protein expression in human A549 cells incubated for 48 hrs by high-throughput flow cytometric analysis; settings: A549, 48 h
[3] = Inhibition of IFN-gamma induced PD-L1 protein expression in human SK-OV-3 cells incubated for 48 hrs by high-throughput flow cytometric analysis; settings: SK-OV-3, 48 h
BXPC-3 [4] = assay: Reversal of IFN-gamma induced cell death in human BXPC-3 cells at 2.5 to 10 uM incubated for 48 hrs by microscopic analysis; type: functional, cell-based; settings: dose 2.5-10 µM
BXPC-3 [5] = assay: Effect on cell death in human BXPC-3 cells at 2.5 to 10 uM incubated for 48 hrs by microscopic analysis; type: toxicity, cell-based; settings: bxpc-3, 48 h, dose 2.5-10 µM
BXPC-3 [6] = assay: Effect on cell viability in human BXPC-3 cells at 2.5 to 10 uM incubated for 48 hrs by CellTiter-Glo assay; type: toxicity, cell-based; settings: bxpc-3, 48 h, dose 2.5-10 µM
[7] = molecular target: Transcription factor p65 (Homo sapiens) (UniProt Q04206); assay: Inhibition of p65 phosphorylation in human BXPC-3 cells at 2.5 to 10 uM preincubated with compound for 1 hrs followed by IFN-gamma stimulation for 1 hrs by Western blot analysis; type: cell-based; settings: dose 2.5-10 µM, time 2.0 hrs
Transcription factor p65 (Homo sapiens), sequence (Q04206 whole entry, the tested form may be a part): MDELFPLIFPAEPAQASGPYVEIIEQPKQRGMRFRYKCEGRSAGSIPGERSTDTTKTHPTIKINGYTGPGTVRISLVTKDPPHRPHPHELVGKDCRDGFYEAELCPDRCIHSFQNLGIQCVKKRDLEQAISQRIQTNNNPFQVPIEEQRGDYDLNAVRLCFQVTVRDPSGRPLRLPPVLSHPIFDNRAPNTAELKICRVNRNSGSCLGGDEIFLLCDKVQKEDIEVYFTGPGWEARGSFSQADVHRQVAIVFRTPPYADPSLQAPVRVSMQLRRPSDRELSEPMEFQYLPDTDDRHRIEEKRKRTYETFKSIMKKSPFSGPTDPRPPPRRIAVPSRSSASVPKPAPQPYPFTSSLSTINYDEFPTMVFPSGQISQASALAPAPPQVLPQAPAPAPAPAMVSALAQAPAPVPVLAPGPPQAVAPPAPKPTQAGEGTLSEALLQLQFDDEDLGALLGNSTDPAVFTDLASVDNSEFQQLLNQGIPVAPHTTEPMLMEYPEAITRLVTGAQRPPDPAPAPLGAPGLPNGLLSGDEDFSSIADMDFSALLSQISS

[8] = molecular target: Transcription factor p65 (Homo sapiens) (UniProt Q04206); assay: Inhibition of p65 phosphorylation in human A549 cells at 2.5 to 10 uM preincubated with compound for 1 hrs followed by IFN-gamma stimulation for 1 hrs by Western blot analysis; type: cell-based; settings: dose 2.5-10 µM, time 2.0 hrs
[9] = molecular target: Transcription factor p65 (Homo sapiens) (UniProt Q04206); assay: Inhibition of p65 phosphorylation in human SK-OV-3 cells at 2.5 to 10 uM preincubated with compound for 1 hrs followed by IFN-gamma stimulation for 1 hrs by Western blot analysis; type: cell-based; settings: dose 2.5-10 µM, time 2.0 hrs
[10] = molecular target: T1, Tyrosine-protein kinase JAK2 (Homo sapiens, UniProt O60674); assay: Inhibition of N-terminal His-tagged human JAK2 (826 to 1132 residues) expressed in Sf21 cells incubated for 30 mins in presence of ATP by LANCE Ultra assay
T1 sequence (O60674 whole entry, the tested form may be a part): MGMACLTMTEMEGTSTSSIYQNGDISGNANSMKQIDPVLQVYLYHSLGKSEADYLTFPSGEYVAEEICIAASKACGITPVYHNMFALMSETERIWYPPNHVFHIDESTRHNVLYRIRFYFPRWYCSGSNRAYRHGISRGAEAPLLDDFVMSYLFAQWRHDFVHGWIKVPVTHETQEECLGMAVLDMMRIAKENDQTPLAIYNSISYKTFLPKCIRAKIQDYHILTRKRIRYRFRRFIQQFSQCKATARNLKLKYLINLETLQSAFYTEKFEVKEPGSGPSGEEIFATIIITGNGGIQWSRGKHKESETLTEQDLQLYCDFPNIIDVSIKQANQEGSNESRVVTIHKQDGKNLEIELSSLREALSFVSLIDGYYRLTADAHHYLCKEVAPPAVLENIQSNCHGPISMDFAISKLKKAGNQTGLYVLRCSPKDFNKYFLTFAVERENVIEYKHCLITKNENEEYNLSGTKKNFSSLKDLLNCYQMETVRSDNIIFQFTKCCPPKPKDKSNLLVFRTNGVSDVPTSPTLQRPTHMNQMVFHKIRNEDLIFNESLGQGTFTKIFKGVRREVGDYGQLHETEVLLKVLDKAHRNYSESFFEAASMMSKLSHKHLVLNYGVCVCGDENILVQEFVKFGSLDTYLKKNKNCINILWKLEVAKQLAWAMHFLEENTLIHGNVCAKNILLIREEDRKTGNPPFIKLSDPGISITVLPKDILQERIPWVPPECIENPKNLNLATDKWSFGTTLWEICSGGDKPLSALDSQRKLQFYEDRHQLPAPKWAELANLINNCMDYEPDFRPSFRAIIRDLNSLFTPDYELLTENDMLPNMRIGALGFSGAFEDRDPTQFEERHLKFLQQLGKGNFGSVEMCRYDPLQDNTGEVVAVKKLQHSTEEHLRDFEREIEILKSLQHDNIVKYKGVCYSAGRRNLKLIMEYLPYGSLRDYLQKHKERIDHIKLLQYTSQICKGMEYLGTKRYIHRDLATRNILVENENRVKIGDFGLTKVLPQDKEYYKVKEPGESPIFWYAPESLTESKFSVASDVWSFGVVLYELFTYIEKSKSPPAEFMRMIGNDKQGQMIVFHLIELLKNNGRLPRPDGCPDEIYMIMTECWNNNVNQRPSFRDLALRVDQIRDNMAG

[11] = molecular target: T2, Tyrosine-protein kinase JAK3 (Homo sapiens, UniProt P52333); assay: Inhibition of N-terminal His-tagged human JAK3 (795 to 1124 residues) expressed in Sf21 cells incubated for 30 mins in presence of ATP by LANCE Ultra assay
T2 sequence (P52333 whole entry): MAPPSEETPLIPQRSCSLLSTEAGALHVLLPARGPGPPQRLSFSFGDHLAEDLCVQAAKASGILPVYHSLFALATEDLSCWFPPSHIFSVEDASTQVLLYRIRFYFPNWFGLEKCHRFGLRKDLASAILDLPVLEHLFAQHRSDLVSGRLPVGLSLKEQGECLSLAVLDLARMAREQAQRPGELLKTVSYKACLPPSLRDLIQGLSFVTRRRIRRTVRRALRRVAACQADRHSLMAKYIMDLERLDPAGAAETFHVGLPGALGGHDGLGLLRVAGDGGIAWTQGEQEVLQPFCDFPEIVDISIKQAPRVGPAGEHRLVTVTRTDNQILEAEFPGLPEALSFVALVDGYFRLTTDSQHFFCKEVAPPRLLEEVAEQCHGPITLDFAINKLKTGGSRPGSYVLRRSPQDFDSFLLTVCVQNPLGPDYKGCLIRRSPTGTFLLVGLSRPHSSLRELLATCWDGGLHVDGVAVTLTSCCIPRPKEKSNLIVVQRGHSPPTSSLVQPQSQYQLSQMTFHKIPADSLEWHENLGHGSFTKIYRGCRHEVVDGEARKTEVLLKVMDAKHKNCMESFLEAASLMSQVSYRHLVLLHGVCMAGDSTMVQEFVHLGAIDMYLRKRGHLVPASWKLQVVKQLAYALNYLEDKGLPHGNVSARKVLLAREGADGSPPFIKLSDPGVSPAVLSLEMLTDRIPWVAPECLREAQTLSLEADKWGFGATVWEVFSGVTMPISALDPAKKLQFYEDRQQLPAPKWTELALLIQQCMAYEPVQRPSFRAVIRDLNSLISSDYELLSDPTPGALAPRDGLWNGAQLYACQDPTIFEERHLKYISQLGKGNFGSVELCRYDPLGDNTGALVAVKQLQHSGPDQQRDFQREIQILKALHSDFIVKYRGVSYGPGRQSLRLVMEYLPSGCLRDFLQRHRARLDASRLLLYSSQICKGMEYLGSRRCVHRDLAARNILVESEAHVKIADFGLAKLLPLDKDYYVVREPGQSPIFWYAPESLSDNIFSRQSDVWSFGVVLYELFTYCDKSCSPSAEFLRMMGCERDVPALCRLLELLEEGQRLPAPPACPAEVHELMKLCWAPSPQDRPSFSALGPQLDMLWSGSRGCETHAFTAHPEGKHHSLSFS

[12] = molecular target: Non-receptor tyrosine-protein kinase TYK2 (Homo sapiens, UniProt P29597); assay: Inhibition of N-terminal GST-tagged human TYK2 (871to 1187 residues) expressed in Sf21 cells incubated for 30 mins in presence of ATP by LANCE Ultra assay
Non-receptor tyrosine-protein kinase TYK2, sequence (P29597 whole entry, the tested form may be a part): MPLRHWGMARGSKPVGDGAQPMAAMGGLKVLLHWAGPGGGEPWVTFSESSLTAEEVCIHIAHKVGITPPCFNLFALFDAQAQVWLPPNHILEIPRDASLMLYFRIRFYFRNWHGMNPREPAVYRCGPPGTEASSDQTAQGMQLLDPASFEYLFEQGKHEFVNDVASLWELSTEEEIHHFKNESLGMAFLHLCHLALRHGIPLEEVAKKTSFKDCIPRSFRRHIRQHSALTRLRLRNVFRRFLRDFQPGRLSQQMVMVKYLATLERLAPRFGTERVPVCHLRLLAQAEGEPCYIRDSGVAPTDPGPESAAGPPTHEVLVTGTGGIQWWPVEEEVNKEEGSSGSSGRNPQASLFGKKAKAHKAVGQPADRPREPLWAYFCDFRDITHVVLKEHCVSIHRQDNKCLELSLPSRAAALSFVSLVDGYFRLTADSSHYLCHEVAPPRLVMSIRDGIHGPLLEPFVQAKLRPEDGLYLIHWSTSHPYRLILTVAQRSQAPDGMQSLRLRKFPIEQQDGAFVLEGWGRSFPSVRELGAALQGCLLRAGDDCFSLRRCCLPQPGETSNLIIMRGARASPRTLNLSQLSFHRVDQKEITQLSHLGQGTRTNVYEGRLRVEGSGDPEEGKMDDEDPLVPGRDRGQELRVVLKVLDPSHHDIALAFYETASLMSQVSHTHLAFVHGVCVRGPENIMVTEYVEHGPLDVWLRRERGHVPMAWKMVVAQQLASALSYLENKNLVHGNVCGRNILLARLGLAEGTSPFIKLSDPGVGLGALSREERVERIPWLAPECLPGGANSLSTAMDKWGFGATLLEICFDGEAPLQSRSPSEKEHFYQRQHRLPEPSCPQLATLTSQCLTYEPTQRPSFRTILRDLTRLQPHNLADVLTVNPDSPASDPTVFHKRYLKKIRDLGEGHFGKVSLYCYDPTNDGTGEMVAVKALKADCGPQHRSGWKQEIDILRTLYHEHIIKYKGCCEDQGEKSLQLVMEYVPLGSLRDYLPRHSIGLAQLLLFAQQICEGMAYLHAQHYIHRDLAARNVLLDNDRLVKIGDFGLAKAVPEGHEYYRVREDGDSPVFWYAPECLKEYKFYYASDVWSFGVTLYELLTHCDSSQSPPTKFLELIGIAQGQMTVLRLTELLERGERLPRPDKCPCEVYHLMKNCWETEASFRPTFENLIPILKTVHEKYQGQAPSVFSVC

B16-OVA melanoma cell [13] = assay: Sensitization of mouse B16-OVA melanoma cells to OT-1 T cells assessed as increase in antigen specific T-cell killing at 2.5 to 10 uM preincubated with compound in presence of mouse IFN-gamma for 24 hrs followed by OT-1 T cell addition for 24 hrs by crystal violet staining based analysis; type: functional; settings: dose 2.5-10 µM, time 48.0 hrs
B16-OVA melanoma cell [14] = assay: Sensitization of mouse B16-OVA melanoma cells to OT-1 T cells assessed as reduction in cell viability preincubated with compound in presence of mouse IFN-gamma for 24 hrs followed by OT-1 T cell addition for 24 hrs by CellTiter-Glo assay; type: functional, cell-based; settings: dose 2.5-10 µM
[15] = molecular target: T1, Tyrosine-protein kinase JAK2; settings: BXPC-3, Lysate, dose 10.0 µM, time 1.0 hrs

IC50 [1]: 4.1 µM
IC50 [2]: 2800 nM
IC50 [3]: 6.5 µM
inhibition [7]: inactive
inhibition [8]: inactive
inhibition [9]: inactive
IC50 [10]: 1200 nM
IC50 [11]: 520 nM
IC50 [12]: 530 nM
ΔTm [15]: 11 °C
Structure (SMILES): C/C(=C\C[C@@H](C)[C@H]1CC[C@H]2[C@@H]3C[C@H](OS(=O)(=O)[O-])[C@H]4C[C@H](OS(=O)(=O)[O-])[C@@H](OS(=O)(=O)[O-])C[C@]4(C)[C@H]3CC[C@]12C)C(C)(C)C(C)C.[Na+].[Na+].[Na+]
Activity (BXPC-3 [4]): Active
Activity (BXPC-3 [5]): Non-Toxic
Activity (BXPC-3 [6]): Non-Toxic
Activity (B16-OVA melanoma cell [13]): Active
Activity (B16-OVA melanoma cell [14]): Dose-Dependent Effect
